According to patent publication US20240279202A1 (NURIX THERAPEUTICS, INC., priority 2021, published 2024):

Target: T1, ITK (Homo sapiens, UniProt Q08881)
T1 sequence (Q08881 1-620): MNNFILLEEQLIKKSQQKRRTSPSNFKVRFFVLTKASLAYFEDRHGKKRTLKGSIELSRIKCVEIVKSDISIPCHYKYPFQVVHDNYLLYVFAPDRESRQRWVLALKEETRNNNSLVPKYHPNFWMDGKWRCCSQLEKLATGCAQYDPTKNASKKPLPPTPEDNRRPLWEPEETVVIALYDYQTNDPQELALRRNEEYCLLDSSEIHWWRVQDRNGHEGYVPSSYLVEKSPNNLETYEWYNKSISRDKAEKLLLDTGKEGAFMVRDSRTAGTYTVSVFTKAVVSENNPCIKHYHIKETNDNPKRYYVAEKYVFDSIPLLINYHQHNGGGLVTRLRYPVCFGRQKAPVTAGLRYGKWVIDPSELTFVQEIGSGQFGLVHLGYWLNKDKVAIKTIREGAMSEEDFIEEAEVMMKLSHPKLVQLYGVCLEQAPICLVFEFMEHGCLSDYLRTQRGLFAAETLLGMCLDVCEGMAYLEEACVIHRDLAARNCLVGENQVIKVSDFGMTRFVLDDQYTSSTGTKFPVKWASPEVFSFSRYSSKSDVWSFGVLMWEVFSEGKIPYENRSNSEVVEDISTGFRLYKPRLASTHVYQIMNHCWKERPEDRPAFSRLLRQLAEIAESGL
Experiment: ITK degradation HiBiT assay
Type: cell-based
Parameters: expressed in transfected cells; host or cells: Molt4 (ATCC CRL-1552), monoclonal clone 1C10, engineered to carry the HiBiT tag
Details: 4 hrs; for DC50: C-terminal HiBiT-tagged Molt4 cells; for Dmax: MOLT-4, C-terminal HiBiT-tagged Molt4 cells
Method: Itk Degradation Hibit Assay
Compounds provided herein were assayed in vitro with ITK HiBit cell lines. Compound dilution series (11-point, 5 fold dilutions in DMSO, columns 2-12 with replicate in rows A/B, C/D, E/F, G,H at 2000× the final required concentrations were prepared in 96 well plates (Falcon, cat. no. 353077). Column 1, rows A-H were control DMSO. The 2000× solutions ranged from 2 mM to 1.024 nM (final assay concentration range 1 μM to […]). The 2000× solutions were added to cells in […], for a final DMSO concentration of 0.5% and final assay compound concentration of 1×. For the cells, C-terminal HiBiT-tagged Molt4 cells (ATCC CRL-1552, monoclonal cell line clone 1C10) were plated at 1×10^6 cells/mL, 100 μL/well ([…]) in complete RPMI (10% FBS, 1% L-glutamine). The cells were incubated with compound 10 and compound 17 for 4 hrs at […]/6% CO2.
Following incubation, 100 μL of complete Nano-Glo HiBiT Lytic Detection Reagent (Nano-Glo HiBiT Lytic Buffer with 1:50 Nano-Glo HiBiT Lytic Substrate and 1:100 LgBiT Protein; Promega cat. no. N3040) was added. Cells were further incubated for 10 min at room temperature (RT). Luminescence units (LU) were read on an EnVision plate reader (Perkin Elmer, 0.1 sec per well). Percent ITK remaining per sample was calculated as follows: […]
Using Graphpad Prism, % ITK remaining values were plotted as a function of compound concentration. To determine DC50 and Dmax values, resulting curves were fit to the Prism curve-fitting equation “log(inhibitor) vs response—Variable slope (four parameters)” (reported best fit value IC50 used as DC50). ITK was measured with antibody-based MSD (Meso-Scale Discovery) assays shown below.

| Structure (SMILES) | DC50 [nM] | Dmax [%] |
| --- | --- | --- |
| C[C@@]12Cc3[nH]nc(C(=O)Nc4cnn(C5CCN(CC6CCN(c7ccc(C8CCC(=O)NC8=O)cc7F)CC6)CC5)c4)c3C[C@@H]1C2(F)F (mixture of isomers) [Compound 112, (4aS,5aR)-N-(1-{1-[(1-{4-[(3RS)-2,6-dioxopiperidin-3-yl]-2-fluorophenyl}piperidin-4-yl)methyl]piperidin-4-yl}-1H-pyrazol-4-yl)-5,5-difluoro-5a-methyl-1H,4H,4aH,5H,5aH,6H-cyclopropa[f]indazole-3-carboxamide] | 0.14 | 87 |
| C[C@@]12Cc3[nH]nc(C(=O)Nc4cnn(C5CCN(CC6CCN(c7ncc(C8CCC(=O)NC8=O)cn7)CC6)CC5)c4)c3C[C@@H]1C2(F)F (mixture of isomers) [Compound 115, (4aS,5aR)-N-(1-{1-[(1-{5-[(3RS)-2,6-dioxopiperidin-3-yl]pyrimidin-2-yl}piperidin-4-yl)methyl]piperidin-4-yl}-1H-pyrazol-4-yl)-5,5-difluoro-5a-methyl-1H,4H,4aH,5H,5aH,6H-cyclopropa[f]indazole-3-carboxamide] | 0.391 | 84 |
| C[C@@]12Cc3[nH]nc(C(=O)Nc4cnn(CC5CCN(CC6CCN(c7ccc(C8CCC(=O)NC8=O)cc7)CC6)CC5)c4)c3C[C@@H]1C2(F)F (mixture of isomers) [Compound 119, (4aS,5aR)-N-[1-({1-[(1-{4-[(3RS)-2,6-dioxopiperidin-3-yl]phenyl}piperidin-4-yl)methyl]piperidin-4-yl}methyl)-1H-pyrazol-4-yl]-5,5-difluoro-5a-methyl-1H,4H,4aH,5H,5aH,6H-cyclopropa[f]indazole-3-carboxamide] | 0.041 | 85 |
| COC[C@@]1(C)CCc2c(-c3cc4ccc(C(=O)N5CCN(CC6CCN(c7ccc(C8CCC(=O)NC8=O)cc7)CC6)CC5)cc4[nH]3)n[nH]c2C1 (mixture of isomers) [Compound 224, (3RS)-3-(4-{4-[(4-{2-[(6S)-6-(methoxymethyl)-6-methyl-1,4,5,7-tetrahydroindazol-3-yl]-1H-indole-6-carbonyl}piperazin-1-yl)methyl]piperidin-1-yl}phenyl)piperidine-2,6-dione] | 8.5 | 84 |
| C[C@@]12Cc3[nH]nc(-c4nc5ccc(C(=O)N6CCN(CC7CCN(c8ccc(C9CCC(=O)NC9=O)cc8)CC7)CC6)cc5[nH]4)c3C[C@@H]1C2(F)F (mixture of isomers) [Compound 227, (3RS)-3-(4-{4-[(4-{2-[(4aS,5aR)-5,5-difluoro-5a-methyl-1H,4H,4aH,6H-cyclopropa [f]indazol-3-yl]-3H-1,3-benzodiazole-5-carbonyl}piperazin-1-yl)methyl]piperidin-1-yl}phenyl)piperidine-2,6-dione] | 0.6 | 87 |
| CN(c1ccc2cc(-c3n[nH]c4c3C[C@@H]3C(F)(F)[C@]3(C)C4)[nH]c2c1)C(=O)[C@H]1C[C@@]2(CCN(c3ccc4c(c3)C(=O)N([C@H]3CCC(=O)NC3=O)C4=O)C2)C1 (racemic) [Compound 71a, (2r,4r)-N-[2-[(4aS,5aR)-5,5-difluoro-5a-methyl-1H,4H,4aH,6H-cyclopropa[f]indazol-3-yl]-1H-indol-6-yl]-6-[2-[(3RS)-2,6-dioxopiperidin-3-yl]-1,3-dioxoisoindol-5-yl]-N-methyl-6-azaspiro[3.4]octane-2-carboxamide] | – | 53 |
| C[C@@]12Cc3[nH]nc(C(=O)Nc4cnn(C5CCC(CN6CCN(c7ccc(C8CCC(=O)NC8=O)cn7)CC6)CC5)c4)c3C[C@@H]1C2(F)F (mixture of isomers) [Compound 125, (4aS,5aR)-5,5-difluoro-5a-methyl-N-{1-[(1rs,4rs)-4-[(4-{5-[(3RS)-2,6-dioxopiperidin-3-yl]pyridin-2-yl}piperazin-1-yl)methyl]cyclohexyl]-1H-pyrazol-4-yl}-1H,4H,4aH,5H,5aH,6H-cyclopropa[f]indazole-3-carboxamide] | 3.3 | 88 |
| C[C@@]12Cc3[nH]nc(C(=O)Nc4cnn([C@H]5CC[C@H](CN6CCN(c7ccc(C(=O)NC8CCC(=O)NC8=O)nc7)CC6)CC5)c4)c3C[C@@H]1C2(F)F (mixture of isomers) [Compound 127, N-[(3SR)-2,6-dioxopiperidin-3-yl]-5-(4-{[(1rs,4rs)-4-{4-[(4aS,5aR)-5,5-difluoro-5a-methyl-1H,4H,4aH,5H,5aH,6H-cyclopropa[f]indazole-3-amido]-1H-pyrazol-1-yl}cyclohexyl]methyl}piperazin-1-yl)pyridine-2-carboxamide] | 19.1 | 69 |
| C[C@@]12Cc3[nH]nc(-c4cc5ccc(C(=O)N6CC7CCC(C6)N7CC6CCN(c7ccc(C8CCC(=O)NC8=O)cc7)CC6)cc5[nH]4)c3C[C@@H]1C2(F)F (mixture of isomers) [Compound 154] | – | 76 |

The next lines start with the values.

| DC50 [nM] | Dmax [%] | Structure (SMILES) |
| --- | --- | --- |
| 0.002 | 87 | C[C@@]12Cc3[nH]nc(C(=O)Nc4cnn(C5CCN(CC6CCN(c7ccc(C8CCC(=O)NC8=O)cn7)CC6)CC5)c4)c3C[C@@H]1C2(F)F (mixture of isomers) [Compound 114, (4aS,5aR)-N-(1-{1-[(1-{5-[(3RS)-2,6-dioxopiperidin-3-yl]pyridin-2-yl}piperidin-4-yl)methyl]piperidin-4-yl}-1H-pyrazol-4-yl)-5,5-difluoro-5a-methyl-1H,4H,4aH,5H,5aH,6H-cyclopropa[f]indazole-3-carboxamide] |
| 0.049 | 84 | C[C@@]12Cc3[nH]nc(C(=O)Nc4cnn(CC5CCN(CC6CCN(c7ccc(C8CCC(=O)NC8=O)cn7)CC6)CC5)c4)c3C[C@@H]1C2(F)F (mixture of isomers) [Compound 120, (4aS,5aR)-N-[1-({1-[(1-{5-[(3RS)-2,6-dioxopiperidin-3-yl]pyridin-2-yl}piperidin-4-yl)methyl]piperidin-4-yl}methyl)-1H-pyrazol-4-yl]-5,5-difluoro-5a-methyl-1H,4H,4aH,5H,5aH,6H-cyclopropa[f]indazole-3-carboxamide] |
| 8.5 | 84 | C[C@@]12Cc3[nH]nc(-c4cc5ccc(C(=O)N6CCN(CC7CCN(c8ccc(C9CCC(=O)NC9=O)cc8)CC7)CC6)cc5[nH]4)c3C[C@@H]1C2 (mixture of isomers) [Compound 225, (3RS)-3-(4-{4-[(4-{2-[(4aS,5aR)-5a-Methyl-1H,4H,4aH,5H,6H-cyclopropa[f]indazol-3-yl]-1H-indole-6-carbonyl}piperazin-1-yl)methyl]piperidin-1-yl}phenyl)piperidine-2,6-dione] |
| 63.1 | 63 | C[C@@]12Cc3[nH]nc(C(=O)Nc4cnn(C5CCC(CN6CCc7cc(C8CCC(=O)NC8=O)ccc7C6)CC5)c4)c3C[C@@H]1C2(F)F (mixture of isomers) [Compound 123, (4aS,5aR)-5,5-difluoro-5a-methyl-N-{1-[(lsr,4sr)-4-({6-[(3RS)-2,6-dioxopiperidin-3-yl]-1,2,3,4-tetrahydroisoquinolin-2-yl}methyl)cyclohexyl]-1H-pyrazol-4-yl}-1H,4H,4aH,5H,5aH,6H-cyclopropa[f]indazole-3-carboxamide] |
| 1.4 | 91 | C[C@@]12Cc3[nH]nc(C(=O)Nc4cnn(C5CCC(CN6CCN(c7ccc(C8CCC(=O)NC8=O)cc7)CC6)CC5)c4)c3C[C@@H]1C2(F)F (mixture of isomers) [Compound 126, (4aS,5aR)-5,5-difluoro-5a-methyl-N-{1-[(1rs,4rs)-4-[(4-{4-[(3RS)-2,6-dioxopiperidin-3-yl]phenyl}piperazin-1-yl)methyl]cyclohexyl]-1H-pyrazol-4-yl}-1H,4H,4aH,5H,5aH,6H-cyclopropa[f]indazole-3-carboxamide] |
| – | 80 | C[C@H]1CN(C(=O)c2ccc3cc(-c4n[nH]c5c4CCC(C)(C)C5)[nH]c3c2)CCN1CC1CCN(c2ccc(C3CCC(=O)NC3=O)cc2)CC1 (mixture of isomers) [Compound 152] |
| – | 80 | C[C@H]1CN(C(=O)c2ccc3cc(-c4n[nH]c5c4C[C@@H]4C(F)(F)[C@]4(C)C5)[nH]c3c2)CCN1CC1CCN(c2ccc(C3CCC(=O)NC3=O)cc2)CC1 (mixture of isomers) [Compound 153] |
